Data from PubChem BioAssay (NCI).
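Protocol summary: plate cells (96-well), add compound at 5 concentrations, incubate 48 h, interpolate endpoints linearly. GI50: concentration for 50% inhibition of growth. Definition used: TGI = concentration required for complete inhibition of growth.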

How the values were obtained:
Test in all cases: NCI-60 cell line screen, 48 h
HCT-116 colon = tested on: HCT-116 colon
HOP-92 NSCLC = tested on: HOP-92 NSCLC
KM12 colon = tested on: KM12 colon
NCI-H522 lung = tested on: NCI-H522 lung
OVCAR-4 ovarian = tested on: OVCAR-4 ovarian
SF-539 CNS = tested on: SF-539 CNS
SK-MEL-5 melanoma = tested on: SK-MEL-5 melanoma
U251 CNS = tested on: U251 CNS
UACC-257 melanoma = tested on: UACC-257 melanoma
OVCAR-3 ovarian = tested on: OVCAR-3 ovarian

## c1ccc2c(c1)[nH]c1c2nc2ncccn21
HCT-116 colon
  TGI: > 100 µM
HOP-92 NSCLC
  TGI: > 100 µM
KM12 colon
  TGI: > 100 µM
NCI-H522 lung
  TGI: > 100 µM
OVCAR-4 ovarian
  TGI: > 100 µM
SF-539 CNS
  TGI: > 100 µM
SK-MEL-5 melanoma
  TGI: > 100 µM
U251 CNS
  TGI: > 100 µM
UACC-257 melanoma
  TGI: > 100 µM

## O=c1oc(=O)c2oc3ccccc3oc1=2
HCT-116 colon
  TGI: > 100 µM
HOP-92 NSCLC
  TGI: > 100 µM
KM12 colon
  TGI: > 100 µM
NCI-H522 lung
  TGI: > 100 µM
OVCAR-3 ovarian
  TGI: > 100 µM
OVCAR-4 ovarian
  TGI: > 100 µM
SF-539 CNS
  TGI: > 100 µM
U251 CNS
  TGI: > 100 µM
UACC-257 melanoma
  TGI: > 100 µM

## O=C(NC1C2CC3CC(C2)CC1C3)c1cc(/C=C/c2ccccc2)[nH]c(=S)n1 (stereo not given)
HCT-116 colon
  TGI: > 100 µM
KM12 colon
  TGI: > 100 µM
NCI-H522 lung
  TGI: > 100 µM
OVCAR-3 ovarian
  TGI: > 100 µM
OVCAR-4 ovarian
  TGI: > 100 µM
SF-539 CNS
  TGI: > 100 µM
SK-MEL-5 melanoma
  TGI: > 100 µM
U251 CNS
  TGI: > 100 µM
UACC-257 melanoma
  TGI: > 100 µM

## O=C(NN=C1CCCCC1)c1[nH]c2ccc(F)cc2c1-c1ccccc1
HOP-92 NSCLC
  GI50: 50.9 µM
  TGI: > 100 µM
KM12 colon
  GI50: 44.7 µM
  TGI: > 100 µM
NCI-H522 lung
  GI50: 44.1 µM
  TGI: > 100 µM
OVCAR-3 ovarian
  GI50: 21.8 µM
  TGI: > 100 µM
OVCAR-4 ovarian
  GI50: 16.9 µM
  TGI: 69.4 µM
SF-539 CNS
  GI50: 52 µM
  TGI: > 100 µM
SK-MEL-5 melanoma
  GI50: 34.3 µM
  TGI: > 100 µM
U251 CNS
  GI50: 17.8 µM
  TGI: 37.7 µM
UACC-257 melanoma
  GI50: 59.1 µM
  TGI: > 100 µM

## O=S(O)CCCSSc1ccccc1
HCT-116 colon
  TGI: > 100 µM
KM12 colon
  TGI: > 100 µM
NCI-H522 lung
  TGI: 42.4 µM
OVCAR-3 ovarian
  TGI: > 100 µM
OVCAR-4 ovarian
  TGI: > 100 µM
SF-539 CNS
  TGI: 62.9 µM
SK-MEL-5 melanoma
  TGI: > 100 µM
U251 CNS
  TGI: > 100 µM
UACC-257 melanoma
  TGI: > 100 µM

## O=C1CC(O)(c2ccccc2)C(c2ccccc2)=C1c1ccccc1 (stereo not given)
HOP-92 NSCLC
  TGI: 61.3 µM
KM12 colon
  TGI: > 100 µM
NCI-H522 lung
  TGI: 54.1 µM
OVCAR-3 ovarian
  TGI: 88.2 µM
OVCAR-4 ovarian
  TGI: > 100 µM
SK-MEL-5 melanoma
  TGI: 86.7 µM
UACC-257 melanoma
  TGI: > 100 µM

## Cc1cn2c(/C=N/N=C(N)N)c(-c3cccnc3)nc2s1
HCT-116 colon
  GI50: 8.62 µM
  TGI: 37.8 µM
HOP-92 NSCLC
  GI50: 16.8 µM
  TGI: 33.4 µM
KM12 colon
  GI50: 1.58 µM
  TGI: 7.21 µM
NCI-H522 lung
  GI50: 12.1 µM
  TGI: 39.6 µM
OVCAR-3 ovarian
  GI50: 10.3 µM
  TGI: 22.9 µM
OVCAR-4 ovarian
  GI50: 15.7 µM
  TGI: 29.6 µM
SK-MEL-5 melanoma
  GI50: 2.68 µM
  TGI: 13.7 µM
U251 CNS
  GI50: 10.2 µM
  TGI: 23.7 µM
UACC-257 melanoma
  GI50: 16.5 µM
  TGI: 35.4 µM

## COc1ccc(-c2nc(N3CCN(C(=O)C4CCCCC4)CC3)c3c4c(sc3n2)CCCC4)cc1
HCT-116 colon
  GI50: 34.2 µM
  TGI: > 100 µM
KM12 colon
  GI50: > 100 µM
  TGI: > 100 µM
NCI-H522 lung
  GI50: 27.9 µM
  TGI: 96.9 µM
OVCAR-3 ovarian
  GI50: > 100 µM
  TGI: > 100 µM
OVCAR-4 ovarian
  GI50: > 100 µM
  TGI: > 100 µM
SF-539 CNS
  GI50: 39.4 µM
  TGI: > 100 µM
SK-MEL-5 melanoma
  GI50: 68.9 µM
  TGI: > 100 µM
U251 CNS
  GI50: 37.9 µM
  TGI: > 100 µM
UACC-257 melanoma
  GI50: > 100 µM
  TGI: > 100 µM

## N#CC1=C(N)NC(=S)NC12Nc1ccccc1N2
HCT-116 colon
  GI50: 50 µM
  TGI: > 100 µM
KM12 colon
  GI50: 23.6 µM
  TGI: > 100 µM
NCI-H522 lung
  GI50: 20.8 µM
  TGI: 80 µM
OVCAR-3 ovarian
  GI50: 22 µM
  TGI: > 100 µM
OVCAR-4 ovarian
  GI50: > 100 µM
  TGI: > 100 µM
SF-539 CNS
  GI50: 42.4 µM
  TGI: > 100 µM
SK-MEL-5 melanoma
  GI50: 18.1 µM
  TGI: 61 µM
U251 CNS
  GI50: > 100 µM
  TGI: > 100 µM
UACC-257 melanoma
  GI50: > 100 µM
  TGI: > 100 µM
